This note sets out measurements from patent US6723723B1, “Heterocyclic derivatives as inhibitors of factor Xa” (AstraZeneca, priority 1999, dated 2004).

Counter-ions that a name gives are not always drawn.

On to `O=C(c1ccc(-c2ccncc2)nc1)N1CCN(S(=O)(=O)c2cc3cc(Cl)ccc3[nH]2)CC1` (as salt: hydrochloride) [Example 1, 1-(5-Chloroindol-2-ylsulphonyl)-4-[6-(4-pyridyl)nicotinoyl]piperazine], for which the melting point – broadly, the temperature of the solid-liquid transition – was 186 to 190 °C.
